# Measured values taken from EP0831835B1, “TREATING ANOREXIA” (ELI LILLY AND COMPANY, priority 1995, dated 1996).
# Legend:
# [1] = detection of radiolabelled compound in saliva; type: in vivo
# Method: For example, in the treatment of adult humans, dosages of from about 0.25 to 50 mg, preferably from 1 to 30 mg, and most preferably 1 to 20 mg per day may be used. A once a day dosage is normally sufficient, although divided doses may be administered. For treatment of cognitive dysfunction, a dose range of from 1 to 30 mg, preferably 1 to 20 mg per day is suitable.
# human patients = test: double-blind multicenter clinical trial versus placebo; type: in vivo; settings: human patients randomized to compound or placebo
# [2] = system: muscarinic cholinergic receptor; settings: results of pharmacological studies
# dogs = test: animal studies in dogs (weight); type: in vivo
# human subjects = test: double blind multicenter clinical trial versus haloperidol; type: in vivo; settings: 1,996 human subjects, 5-20 mg/day, 6 weeks
# Text: Another double blind multicenter clinical trial was completed using 1,996 human subjects. […] The study continued for 6 weeks, with possible extensions.
# 5-HT1C receptor = target: T1, 5-HT1C receptor (Homo sapiens, UniProt P28335); test: pharmacological studies, activity at 5-HT1C receptor
# T1 sequence (P28335 33-458): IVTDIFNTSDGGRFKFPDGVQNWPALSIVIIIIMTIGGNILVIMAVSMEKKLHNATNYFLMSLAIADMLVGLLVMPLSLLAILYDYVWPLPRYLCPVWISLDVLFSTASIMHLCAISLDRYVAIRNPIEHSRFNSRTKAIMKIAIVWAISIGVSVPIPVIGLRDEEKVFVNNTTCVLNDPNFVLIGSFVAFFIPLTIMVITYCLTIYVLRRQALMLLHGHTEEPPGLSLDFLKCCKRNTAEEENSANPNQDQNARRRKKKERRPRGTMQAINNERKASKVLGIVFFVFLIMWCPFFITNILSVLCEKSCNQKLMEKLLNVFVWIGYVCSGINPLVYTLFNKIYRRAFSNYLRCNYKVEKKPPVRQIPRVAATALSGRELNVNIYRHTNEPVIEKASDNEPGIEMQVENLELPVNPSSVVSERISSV
# rodents = test: animal studies in rodents (food intake / weight); type: in vivo, Male Sprague Dawley CD rats; settings: many such animals
# Method: Male Sprague Dawley CD rats (Charles River, Wilmington, Mass.) are individually housed in cages with ad libitum access to Animal Chow and tap water. Temperature is maintained at approximately 21° C. Rats are adapted to vivarium conditions for at least a week before tests begin.
# At the start of the experiments, the rats are weighed. […] Tests are conducted every 3-4 days. Food intake (± 0.1 g) is recorded hourly for the 5 h after intubation and after 24 h.
smiles,measurement,setting,value
"Cc1cc2c(s1)Nc1ccccc1N=C2N1CCN(C)CC1 [2-methyl-4-(4-methyl-1-piperazinyl)-10H-thieno[2,3-b][1,5]benzodiazepine]",detection in saliva,[1],can be detected in the saliva
same,usefulness for the treatment of anorexia,human patients,can be useful for the treatment of anorexia
same,muscarinic cholinergic receptor activity,[2],has muscarinic cholinergic receptor activity
same,effectiveness for treatment of clinically significant decrease in appetite,dogs,would not be effective
same,weight change,dogs; many such animals,lost weight
same,appetite,human subjects,increase in appetite
same,weight gain,human subjects,statistically significant dose dependent weight gain
same,activity at the 5-HT1C receptor,5-HT1C receptor,active
same,weight change,rodents,lost weight
